Test system: HCT-116
Experiment: Growth inhibition of human HCT116 cells assessed as cell growth at 10 uM incubated for 48 hrs by sulforhodamine B assay relative to control
Type: functional
Conditions: HCT-116, 48 h, read-out: Activity

| Compound | growth at 10 µM [%] |
| --- | --- |
| COc1cc2cc(Oc3ccc(NC(=O)Nc4ccc(Cl)c(Cl)c4)cc3)c(C)nc2cc1OC | 10.5 |

Test system: NCI-H522
Experiment: Growth inhibition of human NCI-H522 cells assessed as cell growth at 10 uM incubated for 48 hrs by sulforhodamine B assay relative to control
Type: functional
Conditions: NCI-H522, 48 h, read-out: Activity

| Compound | growth at 10 µM [%] |
| --- | --- |
| COc1cc2cc(Oc3ccc(NC(=O)Nc4ccc(Cl)c(Cl)c4)cc3)c(C)nc2cc1OC | -13.8 |

Test system: DU-145
Experiment: Growth inhibition of human DU145 cells assessed as cell growth at 10 uM incubated for 48 hrs by sulforhodamine B assay relative to control
Type: functional
Conditions: DU-145, 48 h, read-out: Activity

| Compound | growth at 10 µM [%] |
| --- | --- |
| COc1cc2cc(Oc3ccc(NC(=O)Nc4ccc(Cl)c(Cl)c4)cc3)c(C)nc2cc1OC | 24.8 |

Test system: HCC 2998
Experiment: Growth inhibition of human HCC2998 cells assessed as cell growth at 10 uM incubated for 48 hrs by sulforhodamine B assay relative to control
Type: functional
Conditions: HCC 2998, 48 h, read-out: Activity

| Compound | growth at 10 µM [%] |
| --- | --- |
| COc1cc2cc(Oc3ccc(NC(=O)Nc4ccc(Cl)c(Cl)c4)cc3)c(C)nc2cc1OC | 37.6 |

Test system: IGROV-1
Experiment: Growth inhibition of human IGROV1 cells incubated for 48 hrs by sulforhodamine B assay
Type: functional
Conditions: IGROV-1, 48 h

| Compound | GI50 [µM] | TGI [µM] |
| --- | --- | --- |
| COc1cc2cc(Oc3ccc(NC(=O)Nc4ccc(Cl)c(Cl)c4)cc3)c(C)nc2cc1OC | 5.61 | 46.1 |

Same assay, conditions: IGROV-1, 48 h, read-out: LC50 (the source's name)

| Compound | CC50 [µM] |
| --- | --- |
| COc1cc2cc(Oc3ccc(NC(=O)Nc4ccc(Cl)c(Cl)c4)cc3)c(C)nc2cc1OC | > 100 |

Test system: RPMI-8226
Experiment: Growth inhibition of human RPMI8226 cells assessed as cell growth at 10 uM incubated for 48 hrs by sulforhodamine B assay relative to control
Type: functional
Conditions: RPMI-8226, 48 h, read-out: Activity

| Compound | growth at 10 µM [%] |
| --- | --- |
| COc1cc2cc(Oc3ccc(NC(=O)Nc4ccc(Cl)c(Cl)c4)cc3)c(C)nc2cc1OC | 4.2 |

Test system: CCRF-CEM
Experiment: Growth inhibition of human CCRF-CEM cells assessed as cell growth at 10 uM incubated for 48 hrs by sulforhodamine B assay relative to control
Type: functional
Conditions: read-out: Activity

| Compound | growth at 10 µM [%] |
| --- | --- |
| COc1cc2cc(Oc3ccc(NC(=O)Nc4ccc(Cl)c(Cl)c4)cc3)c(C)nc2cc1OC | 13.3 |

Test system: SNB-75
Experiment: Growth inhibition of human SNB75 cells assessed as cell growth at 10 uM incubated for 48 hrs by sulforhodamine B assay relative to control
Type: functional
Conditions: SNB-75, 48 h, read-out: Activity

| Compound | growth at 10 µM [%] |
| --- | --- |
| COc1cc2cc(Oc3ccc(NC(=O)Nc4ccc(Cl)c(Cl)c4)cc3)c(C)nc2cc1OC | 22.4 |

Test system: EKVX
Experiment: Growth inhibition of human EKVX cells assessed as cell growth at 10 uM incubated for 48 hrs by sulforhodamine B assay relative to control
Type: functional
Conditions: read-out: Activity

| Compound | growth at 10 µM [%] |
| --- | --- |
| COc1cc2cc(Oc3ccc(NC(=O)Nc4ccc(Cl)c(Cl)c4)cc3)c(C)nc2cc1OC | 21 |

Test system: PC-3
Experiment: Growth inhibition of human PC3 cells assessed as cell growth at 10 uM incubated for 48 hrs by sulforhodamine B assay relative to control
Type: functional
Conditions: PC-3, 48 h, read-out: Activity

| Compound | growth at 10 µM [%] |
| --- | --- |
| COc1cc2cc(Oc3ccc(NC(=O)Nc4ccc(Cl)c(Cl)c4)cc3)c(C)nc2cc1OC | 4.12 |

Test system: MDA-MB-231
Experiment: Growth inhibition of human MDA-MB-231 cells assessed as cell growth at 10 uM incubated for 48 hrs by sulforhodamine B assay relative to control
Type: functional
Conditions: MDA-MB-231, 48 h, read-out: Activity

| Compound | growth at 10 µM [%] |
| --- | --- |
| COc1cc2cc(Oc3ccc(NC(=O)Nc4ccc(Cl)c(Cl)c4)cc3)c(C)nc2cc1OC | 47.8 |

Test system: SK-MEL-28
Experiment: Growth inhibition of human SK-MEL-28 cells assessed as cell growth at 10 uM incubated for 48 hrs by sulforhodamine B assay relative to control
Type: functional
Conditions: SK-MEL-28, 48 h, read-out: Activity

| Compound | growth at 10 µM [%] |
| --- | --- |
| COc1cc2cc(Oc3ccc(NC(=O)Nc4ccc(Cl)c(Cl)c4)cc3)c(C)nc2cc1OC | 44.6 |

Test system: SR
Experiment: Growth inhibition of human SR cells assessed as cell growth at 10 uM incubated for 48 hrs by sulforhodamine B assay relative to control
Type: functional
Conditions: read-out: Activity

| Compound | growth at 10 µM [%] |
| --- | --- |
| COc1cc2cc(Oc3ccc(NC(=O)Nc4ccc(Cl)c(Cl)c4)cc3)c(C)nc2cc1OC | 18 |

Test system: HOP-62
Experiment: Growth inhibition of human HOP62 cells assessed as cell growth at 10 uM incubated for 48 hrs by sulforhodamine B assay relative to control
Type: functional
Conditions: HOP-62, 48 h, read-out: Activity

| Compound | growth at 10 µM [%] |
| --- | --- |
| COc1cc2cc(Oc3ccc(NC(=O)Nc4ccc(Cl)c(Cl)c4)cc3)c(C)nc2cc1OC | 55.2 |

Test system: MOLT-4
Experiment: Growth inhibition of human MOLT4 cells assessed as cell growth at 10 uM incubated for 48 hrs by sulforhodamine B assay relative to control
Type: functional
Conditions: MOLT-4, 48 h, read-out: Activity

| Compound | growth at 10 µM [%] |
| --- | --- |
| COc1cc2cc(Oc3ccc(NC(=O)Nc4ccc(Cl)c(Cl)c4)cc3)c(C)nc2cc1OC | 3.69 |

Test system: Hs-578T
Experiment: Growth inhibition of human Hs 578T cells assessed as cell growth at 10 uM incubated for 48 hrs by sulforhodamine B assay relative to control
Type: functional
Conditions: read-out: Activity

| Compound | growth at 10 µM [%] |
| --- | --- |
| COc1cc2cc(Oc3ccc(NC(=O)Nc4ccc(Cl)c(Cl)c4)cc3)c(C)nc2cc1OC | 45.1 |

Test system: BT-549
Experiment: Growth inhibition of human BT549 cells assessed as cell growth at 10 uM incubated for 48 hrs by sulforhodamine B assay relative to control
Type: functional
Conditions: BT-549, 48 h, read-out: Activity

| Compound | growth at 10 µM [%] |
| --- | --- |
| COc1cc2cc(Oc3ccc(NC(=O)Nc4ccc(Cl)c(Cl)c4)cc3)c(C)nc2cc1OC | 28.1 |

Test system: UACC-257
Experiment: Growth inhibition of human UACC257 cells assessed as cell growth at 10 uM incubated for 48 hrs by sulforhodamine B assay relative to control
Type: functional
Conditions: UACC-257, 48 h, read-out: Activity

| Compound | growth at 10 µM [%] |
| --- | --- |
| COc1cc2cc(Oc3ccc(NC(=O)Nc4ccc(Cl)c(Cl)c4)cc3)c(C)nc2cc1OC | 1.38 |

Test system: OVCAR-8
Experiment: Growth inhibition of human OVCAR8 cells assessed as cell growth at 10 uM incubated for 48 hrs by sulforhodamine B assay relative to control
Type: functional
Conditions: OVCAR-8, 48 h, read-out: Activity

| Compound | growth at 10 µM [%] |
| --- | --- |
| COc1cc2cc(Oc3ccc(NC(=O)Nc4ccc(Cl)c(Cl)c4)cc3)c(C)nc2cc1OC | 15 |

Test system: DU-145
Experiment: Growth inhibition of human DU145 cells incubated for 48 hrs by sulforhodamine B assay
Type: functional
Conditions: DU-145, 48 h

| Compound | GI50 [µM] | TGI [µM] |
| --- | --- | --- |
| COc1cc2cc(Oc3ccc(NC(=O)Nc4ccc(Cl)c(Cl)c4)cc3)c(C)nc2cc1OC | 4.27 | 17.1 |

Same assay, conditions: DU-145, 48 h, read-out: LC50 (the source's name)

| Compound | CC50 [µM] |
| --- | --- |
| COc1cc2cc(Oc3ccc(NC(=O)Nc4ccc(Cl)c(Cl)c4)cc3)c(C)nc2cc1OC | 68.4 |
